Experimental data reported in patent US20260286308A1, “COMPOSITION CONTAINING EXTRACELLULAR MATRIX AND MATRIX-BOUND VESICLES FOR PRODUCING EXTRACELLULAR MATRIX AND PREPARATION METHOD THEREFOR” (HLB CELL CO., LTD, priority 2023, published 2026).
Read-outs that look alike come from different tables or passages of the source.

Tests used:
[1] = tested on: Human fibroblasts; settings: for extracellular matrix production: 0.02 nM triiodothyronine or 1 μM isoprenaline added to medium with insulin, EGF and hydrocortisone (Table 2), FIGS. 10 and 11
Protocol: (§1) The analysis method followed the manufacturer's instructions.
Culture media each lacking an individual factor were prepared, and then culture was performed according to Example 1.1.
Then, culture was performed according to Example 1.1.

[2] = tested on: human fibroblast/keratinocyte culture; assay: Type IV collagen produced in culture medium of co-cultured human fibroblasts/keratinocytes after administration of vitamin C; format: cell-based; settings: serum-free FAD medium, 13 days, FIG. 28
Protocol: (§2) The human keratinocyte culture obtained by culture for 7 days according to Example 3.1.2 was removed, followed by washing once with PBS. Thereafter, 3 mL of Accutase was added, and then the keratinocytes were suspended by treatment with chemical reaction for 10 minutes in an incubator at 37° C. After 40 mL of PBS was added to the Accutase solution, the mixture was centrifuged at 800 rpm and 25° C. for 5 minutes, and the supernatant was then removed. To the keratinocyte precipitate, FAD medium (DMEM/F12 (1:1)+Glutamax-I, 1% penicillin, 2 mM L-glutamine, 10 mg/L insulin, 5.5 mg/L transferrin, 5 μg/L selenite, 50 μM L-ascorbic acid 2-phosphate, 1 μM hydrocortisone, 0.02 nM triiodothyronine (T3), 10 μg/L epidermal growth factor (EGF), and 1 μM isoproterenol) supplemented with 5% fatal bovine serum was added. The human dermal fibroblasts culture obtained by culture for 7 days in Example 3.1.1 was removed, and then the keratinocytes were dispensed thereon at a density of 1-2×10^6 cells per culture dish and cultured in an incubator at 37° C. for 24 hours.
(§3) The human fibroblast/keratinocyte culture obtained by culture for 24 hours according to Example 3.1.3 was removed, followed by washing once with PBS. To 35 mL of a serum-free FAD medium (DMEM/F12 (1:1)+Glutamax-I, 1% penicillin, 2 mM L-glutamine, 10 mg/L insulin, 5.5 mg/L transferrin, 5 μg/L selenite, 50 μM L-ascorbic acid 2-phosphate, 1 μM hydrocortisone, 0.02 nM triiodothyronine (T3), 10 μg/L epidermal growth factor (EGF), and 1 μM isoproterenol), vitamin C was added at a concentration of 50 μM, 100 μM, or 200 μM, and then the cells were cultured in an incubator at 37° C. for a total of 13 days while the medium was exchanged every 2-3 days. The culture obtained by previous culture was collected.
as §1

[3] = tested on: Human fibroblasts; assay: Total collagen content in cell culture of single-cultured human fibroblasts (Sirius Red kit, absorbance 530 nm); settings: 50 μM ascorbate-2-phosphate added to medium with insulin, EGF and hydrocortisone (Table 2); FIG. 11
Protocol: To measure the human collagen content in the extracellular matrix present in a culture obtained according to each example described below, quantitative analysis was conducted by utilizing a commercially available Sirius Red kit (Chondrex, #9062). The analysis method followed the manufacturer's instructions. Specifically, Sirius Red solution was added to the culture, followed by incubation, and the precipitated collagen was then mixed with an acidic solution and quantitatively analyzed by measurement of absorbance at 530 nm.
Human fibroblasts were seeded at a density of 3×10^5 cells per 150-mm^2 culture dish. The cells were cultured in high-glucose Dulbecco's Modified Eagle's Medium (DMEM) supplemented with 10% fetal bovine serum and 1% penicillin for 7 days while a growth medium was exchanged every 2-3 days.
(§4) After being cultured according to Example 1.1.1, the cells were further cultured from day 8 using a serum-free/xeno-free culture medium [Dulbecco's Modified Eagle Medium: Ham's F-12 (1:1) supplemented with 100 (DMEM/F12) U/mL penicillin/streptomycin, 2 mM L-alanyl-L-glutamine, 5 μg/L selenium, 50 M ascorbate-2-phosphate, 10 mg/L insulin, 1 μM hydrocortisone, 0.02 nM triiodothyronine, 1 μM isoprenaline, and 10 μg/L epidermal growth factor] while the medium was exchanged at intervals of 2 to 3 days. […] The cell culture after collection was analyzed according to Example 3. […]

[4] = tested on: Human fibroblasts; assay: Laminin content in cell culture of single-cultured human fibroblasts (anti-human laminin antibody plate kit, absorbance 450 nm); settings: 50 μM ascorbate-2-phosphate added to medium with insulin, EGF and hydrocortisone (Table 2); FIG. 10
Protocol: To measure the amount of human laminin component in the extracellular matrix present in a culture obtained according to each example described below, quantitative analysis was conducted by using a commercially available analysis kit (TakaRa, MK107). The analysis method followed the manufacturer's instructions. Specifically, the culture was added onto a 96-well plate coated with an anti-human laminin antibody, followed by incubation. Thereafter, residues were washed off, and a chromogenic enzyme-conjugated specific antibody was added, followed by incubation. Then, quantitative analysis was conducted by measurement of the absorbance at 450 nm.
Human fibroblasts were seeded at a density of 3×10^5 cells per 150-mm^2 culture dish. […]
as §4

[5] = tested on: human fibroblast/keratinocyte culture; assay: Total collagen produced in culture medium of co-cultured human fibroblasts/keratinocytes after administration of NAC; format: cell-based; settings: for total collagen produced: 13 days, control without NAC 77.1-99.5 μg/mL, FIG. 27
Protocol: as §2
as §3, with “N-acetyl cysteine (NAC)” for “vitamin C”, “0.1 mM, 0.5 mM, 1 mM,” for “50 μM, 100 μM,”, “5 mM,” for “200 μM,”
as §1

[6] = factor individually removed from serum-free/xeno-free culture medium (Table 1), compared with medium containing all factors, FIGS. 8 and 9
[7] = NAC at a concentration of 1 mM or higher (1 mM, 5 mM)

## O=C[C@H](O)[C@@H](O)[C@H](O)[C@H](O)CO [glucose]
[1]; glucose concentration 55 mM in DMEM medium (compared with 5.5, 25 and 40 mM), FIGS. 14 and 15
  amount of extracellular matrix produced: reduced

## N[C@@H](Cc1cc(I)c(Oc2ccc(O)c(I)c2)c(I)c1)C(=O)O [triiodothyronine, reference compound]
[1]
  extracellular matrix production: affected

## O=C1O[C@H]([C@@H](O)CO)C(O)=C1O [vitamin C]
[2]; 50 μM vitamin C (called control group)
  Type IV collagen produced: 4.17 µg/mL
[2]; 100 μM vitamin C
  Type IV collagen produced: 5.6 µg/mL
[2]; 200 μM vitamin C
  Type IV collagen produced: 5.69 µg/mL

## CC(C)NCC(O)c1ccc(O)c(O)c1 (centres unmarked) [isoprenaline, reference compound]
[1]
  extracellular matrix production: affected

## ascorbate-2-phosphate
[3]
  collagen production: greatly affected
[4]
  laminin production: did not affect

## C[C@]12CCC(=O)C=C1CC[C@@H]1[C@@H]2[C@@H](O)C[C@@]2(C)[C@H]1CC[C@]2(O)C(=O)CO [hydrocortisone, reference compound]
[1]; [6]
  amount of extracellular matrix produced: significantly reduced

## insulin: additive of the serum-free/xeno-free culture medium, 10 mg/L
[1]; [6]
  amount of extracellular matrix produced: significantly reduced

## CC(=O)N[C@@H](CS)C(=O)O [NAC, N-acetyl cysteine]
[5]; 0.1 mM NAC in serum-free FAD medium
  total collagen produced: 122.1 to 137.5 µg/mL
[5]; 0.5 mM NAC in serum-free FAD medium
  total collagen produced: 112.7 to 130.9 µg/mL
[5]; [7]
  amount of collagen produced: reduced
  cytotoxicity: cytotoxicity was observed
